In PMC6917776, “Discovery of a chemical probe for PRDM9” (Nature Communications, 2019):

System: H3K4me3 at known PRDM9 binding loci and control TSS loci
Experiment: ChIP-qPCR of H3K4me3 in PRDM9-transfected HEK293T cells
Type: cell-based, human
Settings: for dCq (IP-Input): H3K4me3 antibody, Replicate 1; for 2^-dCq (H3K4me3 ChIP-qPCR, IP relative to H3) / H3K4me3 ChIP-qPCR 2^-dCq (IP-Input): Replicate 2; for 2^-dCq (H3K4me3 ChIP-qPCR, IP relative to H3): Antibody H3K4me3; for H3K4me3 ChIP-qPCR 2^-dCq (IP-Input): chr2:40281930-40282015 Intragenic (SLC8A1-AS1), Figure 7 C, H3K4me3 antibody relative to H3
Method: ChIP-qPCR assays were then conducted on known PRDM9 binding loci[26]. Ectopic expression of PRDM9^WT increased trimethylation of H3K4 (H3K4me3) at previously described PRDM9-specific intragenic and intergenic regions[26] (Fig. 7; Supplementary Fig. 12). […] The observed increases in H3K4me3 levels at intragenic and intergenic regions are therefore due directly to PRDM9 PR domain-dependent methylation activity, rather than through recruitment of other H3K4 methyltransferases or other indirect mechanisms.
ChIP qPCR analyses of H3K4me3 methylation levels of known PRDM9-bound loci and control loci. […] Concentrations used (µM) are indicated below each plot. (a–d) represent reported loci of PRDM9 methylation; (e, f) are transcriptional start sites (TSSs) which are not known loci of PRDM9 methylation. Data are normalized to total H3 and are presented as the mean ± upper and lower limits from two replicates. Representative plots of two independent experiments are shown in this figure. The coordinates and the genomic features associated with the assayed loci are indicated above each plot. Left Tailed Student's t-tests were performed by comparing DMSO (0 µM) treated cells to compound treated cells that have been transfected with the same plasmids. *p-value < 0.05 and **p-value < 0.01. Note that here we show a representative of two independent experiments (mean ± s.d of technical replicates) for our ChIP-qPCR experiments. Data obtained using this technique are inherently noisy due to stochastic differences in gene activity/histone positioning. Data are thus typically presented as representative rather than averaged. Source data are provided as a Source Data file.
HEK293T cells were transfected with 37.5 μg empty pcDNA3.1(+) vector (Invitrogen), or the same vector expressing either wild-type PRDM9 (PRDM9^WT) or a catalytically dead PRDM9 mutant (PRDM9^Mut) and 75 μL of Lipofectamine 2000 (Invitrogen) in 6 mL of Opti-MEM (GIBCO) for 48 h. […] ChIP assays were then performed as previously described. Briefly, cells were fixed in 1% formaldehyde and the fixation reaction was quenched in a final concentration of 0.1 M glycine. Cell pellets were first lysed in LB1 (50 mM HEPES-KOH pH 7.5, 140 mM NaCl, 1 mM EDTA, 10% Glycerol, 0.5% Igepal, 0.25% TritonX), washed once in LB2 Buffer (10 mM Tris-HCl pH 8, 200 mM NaCl, 1 mM EDTA, 0.5 mM EGTA) and finally sonicated in LB3 buffer (10 mM Tris-HCl pH 8, 100 mM NaCl, 1 mM EDTA, 0.5 mM EGTA, 0.1% Sodium deoxycholate, 0.5% N-laurosylsarcosine) using a bioruptor (Diagenode). Thereafter, 50 μg of chromatin was subjected to ChIP using the following antibodies purchased from Abcam: α-H3K4me3 (1:200, ab8580, lot:GR3207339-1) and α-H3 (1:250, ab1791, lot:GR300978-4). After extensive washing in RIPA wash buffer (50 mM HEPES-KOH pH 7.6, 100 mM LiCl, 1 mM EDTA, 1% Igepal, 0.7% Sodium Deoxycholate), DNA was eluted from beads. The eluted DNA was treated with RNase A and Proteinase K and purified using the QIAGEN PCR purification kit. qPCR was then carried out targeting the indicated loci (Supplementary Table 3). Upper and lower limits were defined by |2^−(dCq±s) − 2^−(∆Cq)|, where s = √((Standard deviation of Input Cq)^2 + (Standard deviation of Target Cq)^2). […]
formation. ChIP qPCR analyses of H3K4me3 methylation levels at known PRDM9-bound and control loci. Cells transfected with empty vector (negative control) or vectors overexpressing either wild-type PRDM9 (PRDM9 WT) or catalytically dead PRDM9 (PRDM9 MUT) were […]
Panels a-d represent reported loci of […]
(1 picture or pasted object on this page, not shown here)
PRDM9 methylation; e-f are TSSs which are not known sites of PRDM9 methylation. Data are normalized to total H3 and are presented as the mean ± upper and lower limits from two […]

COc1cc(OC)cc(-c2noc(N3CCN(C)C4(CCN(c5ccnc(C)c5)CC4)C3)n2)c1 [MRK-740] was tested, and the “dCq (IP-Input)” value (chr8:49932778-49932856 (Intergenic), PRDM9) was -2.203, the “dCq (IP-Input)” value (chr8:49932778-49932856 (Intergenic), PRDM9_Cat.Dead) was 1.033 and the “dCq (IP-Input)” value (chr12:6643945-6644023 TSS (GAPDH), Empty Vector) was -5.504. For the same molecule, the “dCq (IP-Input)” value (chr12:6643945-6644023 TSS (GAPDH), PRDM9) was -5.409, the “dCq (IP-Input)” value (chr12:6643945-6644023 TSS (GAPDH), PRDM9_Cat.Dead) was -6.466 and the “dCq (IP-Input)” value (chr19:8510167-8510261 TSS (HNRNPM), Empty Vector) was -5.657. The “dCq (IP-Input)” value (chr19:8510167-8510261 TSS (HNRNPM), PRDM9) was -5.412, the “dCq (IP-Input)” value (chr19:8510167-8510261 TSS (HNRNPM), PRDM9_Cat.Dead) was -6.463 and the “H3K4me3 levels at tested TSS sites (ChIP-qPCR, in words)” value (HEK293T transfected with wild-type PRDM9, 48 h) was “No significant reduction in H3K4me3 levels”. The “H3K4me3 levels at PRDM9-dependent intragenic and intergenic loci (ChIP-qPCR, in words)” value (HEK293T transfected with wild-type PRDM9, 48 h, various concentrations) was “abrogated in a concentration-dependent manner in three out of four PRDM9-dependent loci”, the “2^-dCq (H3K4me3 ChIP-qPCR, IP relative to H3)” value (Figure 7 D chr3:165514798-165514911 Intragenic (BCHE), Plasmid Empty Vector, Drug Conc. 2.5) was 0.6821 and the “2^-dCq (H3K4me3 ChIP-qPCR, IP relative to H3)” value (Figure 7 D chr3:165514798-165514911 Intragenic (BCHE), Plasmid Empty Vector, Drug Conc. 5) was 0.9187. The “2^-dCq (H3K4me3 ChIP-qPCR, IP relative to H3)” value (Figure 7 D chr3:165514798-165514911 Intragenic (BCHE), Plasmid Empty Vector, Drug Conc. 10) was 0.5228, the “2^-dCq (H3K4me3 ChIP-qPCR, IP relative to H3)” value (Figure 7 D chr3:165514798-165514911 Intragenic (BCHE), Plasmid PRDM9WT, Drug Conc. 2.5) was 6.769 and the “2^-dCq (H3K4me3 ChIP-qPCR, IP relative to H3)” value (Figure 7 D chr3:165514798-165514911 Intragenic (BCHE), Plasmid PRDM9WT, Drug Conc. 5) was 7.878. The “2^-dCq (H3K4me3 ChIP-qPCR, IP relative to H3)” value (Figure 7 D chr3:165514798-165514911 Intragenic (BCHE), Plasmid PRDM9WT, Drug Conc. 10) was 3.468, the “2^-dCq (H3K4me3 ChIP-qPCR, IP relative to H3)” value (Figure 7 E chr12:6643945-6644023 TSS (GAPDH), Plasmid Empty Vector, Drug Conc. 2.5) was 49.5681 and the “2^-dCq (H3K4me3 ChIP-qPCR, IP relative to H3)” value (Figure 7 E chr12:6643945-6644023 TSS (GAPDH), Plasmid Empty Vector, Drug Conc. 5) was 83.0384. For the same molecule, the “2^-dCq (H3K4me3 ChIP-qPCR, IP relative to H3)” value (Figure 7 E chr12:6643945-6644023 TSS (GAPDH), Plasmid Empty Vector, Drug Conc. 10) was 114.864, the “2^-dCq (H3K4me3 ChIP-qPCR, IP relative to H3)” value (Figure 7 E chr12:6643945-6644023 TSS (GAPDH), Plasmid PRDM9WT, Drug Conc. 2.5) was 64.1133 and the “2^-dCq (H3K4me3 ChIP-qPCR, IP relative to H3)” value (Figure 7 E chr12:6643945-6644023 TSS (GAPDH), Plasmid PRDM9WT, Drug Conc. 5) was 130.72. For the same molecule, the “2^-dCq (H3K4me3 ChIP-qPCR, IP relative to H3)” value (Figure 7 E chr12:6643945-6644023 TSS (GAPDH), Plasmid PRDM9WT, Drug Conc. 10) was 21.1787, the “2^-dCq (H3K4me3 ChIP-qPCR, IP relative to H3)” value (Figure 7 F chr19:8510167-8510261 TSS (HNRNPM), Plasmid Empty Vector, Drug Conc. 2.5) was 123.77 and the “2^-dCq (H3K4me3 ChIP-qPCR, IP relative to H3)” value (Figure 7 F chr19:8510167-8510261 TSS (HNRNPM), Plasmid Empty Vector, Drug Conc. 5) was 107.435. The “2^-dCq (H3K4me3 ChIP-qPCR, IP relative to H3)” value (Figure 7 F chr19:8510167-8510261 TSS (HNRNPM), Plasmid Empty Vector, Drug Conc. 10) was 99.1079, the “2^-dCq (H3K4me3 ChIP-qPCR, IP relative to H3)” value (Figure 7 F chr19:8510167-8510261 TSS (HNRNPM), Plasmid PRDM9WT, Drug Conc. 2.5) was 68.6717 and the “2^-dCq (H3K4me3 ChIP-qPCR, IP relative to H3)” value (Figure 7 F chr19:8510167-8510261 TSS (HNRNPM), Plasmid PRDM9WT, Drug Conc. 5) was 143.684. The “2^-dCq (H3K4me3 ChIP-qPCR, IP relative to H3)” value (Figure 7 F chr19:8510167-8510261 TSS (HNRNPM), Plasmid PRDM9WT, Drug Conc. 10) was 36.5414, the “H3K4me3 ChIP-qPCR 2^-dCq (IP-Input)” value (Empty Vector, Drug Conc. 2.5) was 0.6992 and the “H3K4me3 ChIP-qPCR 2^-dCq (IP-Input)” value (Empty Vector, Drug Conc. 5) was 0.9795. The “H3K4me3 ChIP-qPCR 2^-dCq (IP-Input)” value (Empty Vector, Drug Conc. 10) was 0.6781, the “H3K4me3 ChIP-qPCR 2^-dCq (IP-Input)” value (PRDM9WT, Drug Conc. 2.5) was 6.293 and the “H3K4me3 ChIP-qPCR 2^-dCq (IP-Input)” value (PRDM9WT, Drug Conc. 5) was 5.934.
